Laboratory results: patent publication US9421173B2, “Nano delivery systems for siRNA” (YISSUM RESEARCH DEVELOPMENT COMPANY OF THE HEBREW …, priority 2011, dated 2016)

How the values were obtained:
Type in all cases: physicochemical
[1] = Encapsulation efficacy of siRNA in crosslinked HSA NSs (Trypsin digestion, RP-HPLC); settings: 200 μg siRNA
Description: For encapsulation of siRNA inside crosslinked HSA NSs, siRNA was added to HSA solution prior the addition of desolvating phase. The rest of procedure was made exactly in the same manner detailed above, when instead of using DDW, RNAse free water (RNFW) was used. After crosslinking, the NSs were washed and the total ultrafiltrate was collected, lyophilized and reconstituted with 500 μl RNFW, from which, 160 ul were injected to HPLC. Since partial degradation of free siRNA in the ultrafiltrate was observed, the preferred way to determine siRNA content in the NSs is to directly determine siRNA content in the particle (after its digestion), and not based on the free siRNA (un-encapsulated) in the ultrafiltrate.
The total weight of HSA per 100 μl of suspension (after wash) was quantified gravimetrically. Then 1-2 mg of washed HSA NPs encapsulating siRNA was diluted to 1 ml with RNase free PBS buffer (adjusted to pH=7.5 using 0.5 M NaOH solution) and digested with 20 to 150 μg Trypsin for 60, 90 or 180 min, at dark and under mild shaking at 37° C., till a clear solution was formed. In case sample containing DOTAP, Heparin (90 μg) was added to the aqueous phase, 0 or 60 min after the addition of Trypsin. The free siRNA quantity was determined using RP-HPLC, in the presence of Trypsin or without it.
In order to determine the encapsulation efficacy of siRNA in the crosslinked HSA NSs, the washed NSs were digested with Trypsin till a clear solution was formed and the total siRNA content was detected using RP-HPLC and calculated based on AUC. According to the protocol we have developed in our lab (for detailing see section E), the reliability of such method in quantification the released siRNA, is highly efficient (FIGS. 5-6). A few trends can be concluded; In the presence of DOTAP, the best encapsulation (˜40%) accepted at the low basic pH (pH 8 and 7). At pH 9, removal of the DOTAP from NSs, have reduced encapsulation efficacies. This effect is more pronounced when the non cholesterol modified siRNA (GFP-siRNA) is used.

[2] = Melting point measurements for siRNAs (UV 260 nm); settings: buffer 48 mM Tris, 96 mM NaCl, pH 7.1
Description: Melting point measurements for different siRNAs (21-mer) used were performed on a UV-visible spectrophotometer (Cary 300) at 260 nm, by elevating the sample temperature from 20° C. to 85° C. at rate of 1° C./min. All siRNAs were dissolved in buffer (48 mM Tris, 96 mM NaCl, pH 7.1) to obtain a concentration of 4-10 ng/μl.
The temperature at which the 50% of siRNA strands are denatured is called the melting temperature, or Tm. The Tm for various siRNAs (21 mers) used in our research, was measured and found to be: 78, 77 and 72° C. for GFP-siRNA, Chol-GFP-siRNA and EGFR-siRNA, respectively. With all examined siRNAs, beginning of separation was already observed at 60° C. (data not shown).

[3] = Integrity evaluation of free siRNA exposed to pH 7, 8, 9 with or without glutaraldehyde (HPLC, PAGE 8%); settings: for integrity of free siRNA in the presence of the cross linker (glutaraldehyde): 3 hr, all the pH tested (7, 8, 9), 'heavy' specie runs slower at the gel
Description: FIGS. 16A-16B are gel retardation assays (PAGE 8%) for evaluation of free siRNA integrity after exposure to different conditions. Integrity evaluation was made for GFP-siRNA (FIG. 16A) and Chol-GFP-siRNA (FIG. 16B). Lane No. 1—ladder, Lane No. 2, 3—controls with 100 and 50 ng of untreated siRNA respectively. Lanes 4, 6 and 8, with siRNA exposed to pH 7, 8 and 9, respectively. Lanes 5, 7 and 9, with siRNA exposed to pH 7, 8 and 9 in the presence of glutaraldehyde (0.014% (v/v)), respectively.
(§1) For siRNA integrity (stability) evaluation 8% (19:1) native polyacrylamide gels (PAGE) was used. Electrophoresis was carried out at 200V for 50 min, in Tris-Borate-EDTE (TBE) as running buffer. For siRNA staining, 0.01% of EtBr was used. Gels were visualized under a UV transilluminator.
During the primal encapsulation process of siRNA in the HSA NSs it has been exposed to materials with distractive potential such as basic pH conditions and the presence of cross linker (glutaraldehyde) who can interact with the primal amine present in the nucleic bases: Guanine, Adenine or Cytosine. Hens, the need in siRNA integrity evaluation arise. First, integrity evaluation of the free siRNA (GFP-siRNA and Chol-GFP-siRNA) was made. The siRNAs were exposed to the same conditions used for production of crosslinked HSA NSs (3 hr at aqueous solutions with pH of 7, 8 or 9 with or without the presence of glutaraldehyde), then a fraction from each sample was analyzed using HPLC (data not shown) and gel retardation assay (PAGE 8%) (FIG. 16).

[4] = Integrity evaluation of siRNA extracted from crosslinked HSA NSs and from NCs (HPLC, PAGE 8%); settings: compared with untreated siRNA
Description: FIGS. 17A-17B are gel retardation assays (PAGE 8%) for evaluation of extracted siRNA. Integrity evaluation was made for GFP-siRNA (FIG. 17A) and Chol-GFP-siRNA (FIG. 17B). Lane No. 1—ladder, Lane No. 2—control with 100 ng of untreated siRNA. Lanes 3-8 with siRNA extracted from primal crosslinked HSA NSs (produced in different pH conditions), Lanes 9 and 10, with siRNA extracted from NCs loaded with the primal crosslinked HSA.
as §1
Later, siRNAs were extracted from the primal crosslinked HSA NSs (produced in different pH conditions), and their integrity was assessed using HPLC (data not shown) and gel retardation assay (PAGE 8%) (FIG. 17). Furthermore, the stability of siRNAs extracted from NCs loaded with the primal crosslinked HSA was also examined ([…]—lanes No. 9 & 10), since secondary encapsulation process performed under heat (Tin is 50° C.), using the nano spray drying technique. […] Based on the HPLC results, the exact amount of encapsulated siRNA was determined. […]

| Substance | % encapsulation ([1]; pH 7, with 0.03 mg DOTAP) | Encapsulated is RNA ([1]; pH 7, with 0.03 mg DOTAP) | % encapsulation ([1]; pH 8, with 0.03 mg DOTAP) | Encapsulated is RNA ([1]; pH 8, with 0.03 mg DOTAP) | % encapsulation ([1]; pH 9, with 0.03 mg DOTAP) | Encapsulated is RNA ([1]; pH 9, with 0.03 mg DOTAP) | % encapsulation ([1]; pH 9, without DOTAP) | Encapsulated is RNA ([1]; pH 9, without DOTAP) | melting temperature, or Tm (50% of siRNA strands denatured) [2] | integrity of free siRNA at basic pH ([3]; 3 hr in aqueous solutions of pH 7, 8 or 9, without glutaraldehyde) | integrity of free siRNA in the presence of the cross linker (glutaraldehyde) [3] | integrity of siRNA encapsulated in the primal HSA NSs or secondary NCs [4] |
| --- | --- | --- | --- | --- | --- | --- | --- | --- | --- | --- | --- | --- |
| Chol-GFP-siRNA: Cholesterol modified GFP-siRNA, 21 bp, MW 15,079 Da, SEQ ID NO: 7 and 8, provided by Roche (chain 1 AUAUCAUGGCCGACAAGCATT; chain 2 UGCUUGUCGGCCAUGAUAUTT; 5' cholesteryl, chemistry not fully specified) | 39% | 76 µg | 40% | 80 µg | 26% | 52 µg | 16% | 32 µg | 77 °C | improved resistant to basic pH (8 and 9) compared to GFP-siRNA | highly sensitive | stayed intact |
| EGFR-siRNA: Anti Epidermal Growth Factor Receptor siRNA, 21 bp, MW 13,400 Da, SEQ ID NO: 1 and 2, purchased from Ambion (chain 1 CCAUAAAUGCUACGAAUAUTT; chain 2 AUAUUCGUAGCAUUUAUGGAG; a few LNA modifications, positions not given here, lowercase DNA) |  |  |  |  |  |  |  |  | 72 °C |  |  |  |
| GFP-siRNA: Anti Green Fluorescent Protein siRNA, 21 bp, MW 14,352 Da, SEQ ID NO: 5 and 6, provided by Roche (chain 1 AUAUCAUGGCCGACAAGCATT; chain 2 UGCUUGUCGGCCAUGAUAUTT; chemistry not fully specified) | 43% | 86 µg | 42% | 84 µg | 24% | 48 µg | 9% | 18 µg | 78 °C |  | highly sensitive | stayed intact |
